Experimental data taken from US20040198815A1, “Antimicrobial and anticancer properties of methyl-beta-orcinolcarboxylate from lichen (Everniastrum cirrhatum)” (priority 2003, published 2004).
≈ marks a conversion by molar mass, not a printed value.

Tests used:
[1] = system: Saccharomyces cerevisiae erg 2 (amphotericin and nystatin resistant); test: disc diffusion assay, S. cerevisiae erg 2; conditions: 80 μg/disc
Protocol: (§1) The drug resistance property of the mutants was studied by standardized disc diffusion assay (Bauer at al 1966, American Journal of Clinical Pathology 45: 493-496) with slight modifications. The discs were prepared (5 mm diameter made of Whatman #3 filter paper) by impregnating 8 μl of test compound and placing them on pre-inoculated agar surface.
(§2) A disc containing only the solvent was used as the control. A zone of growth inhibition surrounding the disc is indicative of the […] nature of the strains to antibiotics.
(§3) The pure compound isolated was then tested against polyene and azole resistant strains of Candida albicans. […] In another experiment well-defined amphotericin and nystatin resistant strains of Saccharomyces cerevisiae were used in the assay. These strains designated as erg 2 and erg 6 carry mutations in the ergosterol biosynthetic pathway and therefore are unable to synthesize ergosterol which are the binding site of polyene drugs. Therefore absence of erostreol results in polyene resistance.

[2] = system: Candida albicans mutant strain Clo 31R; test: microbe, parasite or virus in culture; type: cell-based
Protocol: (§4) C. albicans was grown to log phase in Sabouraud's dextrose broth (5 ml) for 48 hrs at 37° C. in a shaker at 250 rpm. The cells were pelleted by centrifugation at 5000 rpm at 4° C. and the pellet was dissolved in 5 ml phosphate buffered saline PBS (6.8 pH). The culture was divided in to five groups of 1 ml each in eppendrof tubes.
(§5) Ethyl methane sulfonate (EMS) was added to each of the culture tube @ 0.1% (v/v) and allowed to grow for 40 min. Then the mutagen was completely washed off thrice by repeatedly pelleting the cells and re-dissolving in PBS. The mutagenized stocks was then diluted in Sabouraud's dextrose broth two folds and allowed to grow for 6 hrs at 37° C. in a shaker at 250 rpm. Titre of the cells before treatment with EMS and immediately after treatment with EMS was calculated to obtain the killing percentage in each of the five tubes. The mutagenized and fixed cultures were then plated in Sabouraud's dextrose agar containing different concentration of amphotericin, nystatin and clotrimazole.
(§6) The colonies found growing after 5th day from each of the five mutagenized stocks were then purified thrice separately by streaking in the same medium containing the antibiotics.

[3] = system: Candida albicans mutant strain NYS 26R; test: microbe, parasite or virus in culture; type: cell-based
Protocol: as §4, §5, §6

[4] = system: Candida albicans mutant strain NYS 4R; test: microbe, parasite or virus in culture; type: cell-based
Protocol: as §4, §5, §6

[5] = system: Candida albicans mutant strain Clo 28R; test: microbe, parasite or virus in culture; type: cell-based
Protocol: as §4, §5, §6

[6] = system: Candida albicans mutant strain Amph 100R; test: disc diffusion assay, mutant Amph 100R; type: cell-based; conditions: for zone of inhibition at 80 µg/disc: Candida albicans, read-out: Net zone of growth inhibition
Protocol: as §4, §5, §6

[7] = system: Saccharomyces cerevisiae erg 6 (amphotericin and nystatin resistant); conditions: 80 μg/disc
Protocol: as §1, §2, §3

[8] = system: Saccharomyces Cerevisiae ABC 287 (WT); test: disc diffusion assay, wild type Saccharomyces cerevisiae; type: cell-based; conditions: 80 μg/disc; for zone of inhibition at 80 µg/disc: read-out: Net zone of growth inhibition
Protocol: as §1, §2, §3

[9] = system: Candida albicans MTCC 1637 (Wild Type); test: disc diffusion assay, wild type Candida albicans; type: cell-based; conditions: for zone of inhibition at 80 µg/disc: MTCC1637, read-out: Net zone of growth inhibition
Protocol: as §1, §2

[10] = system: Candida albicans mutant strain Amph D1R; test: microbe, parasite or virus in culture; type: cell-based
Protocol: as §4, §5, §6

[11] = system: Candida albicans mutant strain Amph C6R; test: microbe, parasite or virus in culture; type: cell-based
Protocol: as §4, §5, §6

[12] = system: Candida albicans mutant strain Amph A8R; test: microbe, parasite or virus in culture; type: cell-based
Protocol: as §4, §5, §6

[13] = system: Candida albicans mutant strain Amph C7R; test: microbe, parasite or virus in culture; type: cell-based
Protocol: as §4, §5, §6

[14] = system: (MCF-7) cancer cell line; test: MTT cytotoxicity testing in vitro, MCF-7; type: cell-based; conditions: Homo sapiens, MCF7, 6 h exposure then 48 h
Protocol: (§7) Cytotoxicity testing in vitro was done by the method of Woerdenbag et al.,1993; J.Nat.Prod. 56 (6): 849-856). 2×10^3 cells/well were incubated in the 5% CO2 incubator for 24 h to enable them to adhere properly to the 96 well polysterene microplate (Grenier, Germany). Test compounds dissolved in 100% DMSO (Merck, Germany) in at least five doses were added and left for 6 h after which the compound plus media was replaced with fresh media and the cells were incubated for another 48 h in the CO2 incubator at 37° C. […] Sigma M 2128] was added, and plates were incubated at 37° C. for 4 h. 100 μl dimethyl sulfoxide (DMSO, Merck, Germany) were added to all wells and mixed thoroughly to dissolve the dark blue crystals. After a few minutes at mom temperature to ensure that all is crystals were dissolved, the plates were read on a SpectraMax 190 Mcroplate Elisa reader (Molecular Devices Inc., USA), at 570 nm. Plates were normally read within 1 h of adding the DMSO.

[15] = system: ovarian (MCF-7) cancer cell line; test: MTT cytotoxicity testing in vitro, MCF-7; type: cell-based; conditions: Homo sapiens, MCF7, 6 h exposure then 48 h
Protocol: as §7

[16] = system: polyene drug resistant Saccharomyces cerevisiae; test: activity against polyene resistant S. cerevisiae (as a group); type: cell-based; conditions: erg 2 and erg 6 strains
Description: Therefore absence of erostreol results in polyene resistance.

[17] = system: polyene and azole resistant strains of Candida albicans; type: cell-based
Protocol: Ethanol extract was prepared and tested against Candida albicans MTCC 1637 (equivalent to ATCC 18804) the fungi that cause different forms of candidiasis in humans and drug resistant mutants of the fungi.

[18] = system: ovarian (PA-1) cancer cell line; test: MTT cytotoxicity testing in vitro, PA-1; type: cell-based; conditions: Homo sapiens, 6 h exposure then 48 h
Protocol: as §7

[19] = system: liver (WRL-68) cancer cell line; test: MTT cytotoxicity testing in vitro, WRL-68; type: cell-based; conditions: Homo sapiens, WRL68, 6 h exposure then 48 h
Protocol: as §7

[20] = system: oral (KB 403) cancer cell line; test: MTT cytotoxicity testing in vitro, KB 403; type: cell-based; conditions: Homo sapiens, KB403, 6 h exposure then 48 h
Protocol: as §7

[21] = in-vitro ergosterol binding assay
Description: Therefore, the ability of lichen compounds to bind to ergosterol was also investigated using in-vitro ergosterol binding assay (Antonio & Molinski 1993; J.Natl.Prod.56:54-61).

[22] = system: Saccharomyces cerevisiae; conditions: Caccamese et al (1985); cited from earlier work
[23] = system: colon (Caco-2) cancer cell line; test: MTT cytotoxicity testing in vitro, Caco-2; type: cell-based; conditions: Homo sapiens, Caco2, 6 h exposure then 48 h
Protocol: Cytotoxicity testing in vitro was done by the method of Woerdenbag et al.,1993; J.Nat.Prod. […] 2×10^3 cells/well were incubated in the 5% CO2 incubator for 24 h to enable them to adhere properly to the 96 well polysterene microplate (Grenier, Germany). […] Then, 10 μl MTT [3-(4,5-dimethylthiazol-2-yl)-2,5-diphenyltetrazolium bromide; Sigma M 2128] was added, and plates were incubated at 37° C. for 4 h. 100 μl dimethyl sulfoxide (DMSO, Merck, Germany) were added to all wells and mixed thoroughly to dissolve the dark blue crystals. […] Plates were normally read within 1 h of adding the DMSO.

[24] = Candida albicans, read-out: Net zone of growth inhibition
[25] = Candida albicans MTCC (Wild Type), 80 μg/disc

With `C[C@@H]1[C@H](O)[C@@H](C)/C=C/C=C/C=C/C=C/C=C/C=C/C=C/[C@H](O[C@@H]2O[C@H](C)[C@@H](O)[C@H](N)[C@@H]2O)C[C@@H]2O[C@](O)(C[C@@H](O)C[C@@H](O)[C@H](O)CC[C@@H](O)C[C@@H](O)CC(=O)O[C@H]1C)C[C@H](O)[C@H]2C(=O)O` [Amphotericin] the “Net zone of growth inhibition” value [1] was 6 mm, the zone of inhibition at 80 µg/disc [2, 24] was 6 mm and the zone of inhibition at 80 µg/disc [3, 24] was 4 mm. The zone of inhibition at 80 µg/disc [4, 24] was 2 mm, the zone of inhibition at 80 µg/disc [5, 24] was 12 mm and the zone of inhibition at 80 µg/disc [6] was 2 mm. For the same compound, the “Net zone of growth inhibition” value [7] was 5 mm, the zone of inhibition at 80 µg/disc [8] was 8 mm and the zone of inhibition at 80 µg/disc [9, 25] was 9 mm.
With `C[C@@H]1[C@H](O)[C@@H](C)/C=C/C=C/CC/C=C/C=C/C=C/C=C/C(O[C@H]2O[C@H](C)[C@@H](O)[C@H](N)[C@@H]2O)CC2O[C@](O)(CC(O)C(O)CCC(O)CC(O)CC(O)CC(=O)O[C@H]1C)CC(O)C2C(=O)O` (some centres unmarked) [Nystatin] the “Net zone of growth inhibition” value [1] was 16 mm, the “Net zone of growth inhibition” value ([2]; Clo 31R, 80 μg/disc) was 17 mm and the “Net zone of growth inhibition” value ([10]; Amph D1R, 80 μg/disc) was 4 mm. The “Net zone of growth inhibition” value ([11]; Amph C6R, 80 μg/disc) was 4 mm, the “Net zone of growth inhibition” value ([3]; NYS 26R, 80 μg/disc) was 9 mm and the “Net zone of growth inhibition” value ([4]; NYS 4R, 80 μg/disc) was 8 mm. For the same compound, the “Net zone of growth inhibition” value ([12]; Amph A8R, 80 μg/disc) was 3 mm, the “Net zone of growth inhibition” value ([5]; Clo 28R, 80 μg/disc) was 21 mm and the “Net zone of growth inhibition” value ([13]; Amph C7R, 80 μg/disc) was 2 mm. For the same compound, the “Net zone of growth inhibition” value ([6]; Amph 100R, 80 μg/disc) was 13 mm, the “Net zone of growth inhibition” value [7] was 13 mm and the “Net zone of growth inhibition” value [8] was 23 mm. The “Net zone of growth inhibition” value [9, 25] was 22 mm.
With `COC(=O)c1c(C)cc(O)c(C)c1O` [Methyl-β-orcinolcarboxylate, methyl-β-orcinolcarboxylate] the IC50 [14] was 1 µg/mL (≈ 5.1 µM), the IC90 [15] was 5.5 µg/mL (≈ 28 µM) and the “Net zone of growth inhibition” value [1] was 6 mm. For the same compound, the “growth inhibition of polyene drug resistant Saccharomyces cerevisiae (in words)” value [16] was “able to specifically inhibit the growth”, the “activity against drug resistant strains of C. albicans (in words)” value [17] was “able to inhibit the growth of drug resistant strains in a dose dependant manner” and the zone of inhibition at 80 µg/disc [2, 24] was 3 mm. The zone of inhibition at 320 µg/disc [2, 24] was 4 mm, the zone of inhibition at 80 µg/disc [10, 24] was 4 mm and the zone of inhibition at 320 µg/disc [10, 24] was 6 mm. It also gave a zone of inhibition at 40 µg/disc [11, 24] of 2 mm, a zone of inhibition at 80 µg/disc [11, 24] of 4 mm and a zone of inhibition at 320 µg/disc [11, 24] of 5 mm. The zone of inhibition at 40 µg/disc [3, 24] was 2 mm, the zone of inhibition at 80 µg/disc [3, 24] was 6 mm and the zone of inhibition at 320 µg/disc [3, 24] was 8 mm. For the same compound, the zone of inhibition at 40 µg/disc [4, 24] was 2 mm, the zone of inhibition at 80 µg/disc [4, 24] was 7 mm and the zone of inhibition at 320 µg/disc [4, 24] was 8 mm. The zone of inhibition at 40 µg/disc [12, 24] was 1 mm, the zone of inhibition at 80 µg/disc [12, 24] was 2 mm and the zone of inhibition at 320 µg/disc [12, 24] was 4 mm. For the same compound, the zone of inhibition at 80 µg/disc [5, 24] was 4 mm, the zone of inhibition at 320 µg/disc [5, 24] was 6 mm and the zone of inhibition at 40 µg/disc [13, 24] was 2 mm. For the same compound, the zone of inhibition at 80 µg/disc [13, 24] was 5 mm, the zone of inhibition at 320 µg/disc [13, 24] was 7 mm and the IC50 [18] was 0.025 µg/mL (≈ 0.127 µM). For the same compound, the IC90 [18] was 4 µg/mL (≈ 20.4 µM), the IC50 [19] was 1 µg/mL (≈ 5.1 µM) and the IC90 [19] was 5 µg/mL (≈ 25.5 µM). The IC50 [20] was 0.04 µg/mL (≈ 0.204 µM), the IC90 [20] was 4.5 µg/mL (≈ 22.9 µM) and the ergosterol-binding property [21] was “does not possess ergosterol-binding property”. The “growth inhibition of yeast strains such as Saccharomyces cerevisiae (in words)” value [22] was “inhibit the growth”, the IC50 [23] was 1.5 µg/mL (≈ 7.65 µM) and the IC90 [23] was 3.5 µg/mL (≈ 17.8 µM). For the same compound, the “Net zone of growth inhibition” value [7] was 6 mm, the zone of inhibition at 80 µg/disc [8] was 2 mm and the “growth inhibition of the wild type strain (in words)” value ([9]; wild type Candida albicans) was “inactive”.
Compound `Clc1ccccc1C(c1ccccc1)(c1ccccc1)n1ccnc1` [Clotrimazole, reference compound] has a zone of inhibition at 80 µg/disc [2, 24] of 11 mm, a zone of inhibition at 80 µg/disc [10, 24] of 27 mm and a zone of inhibition at 80 µg/disc [11, 24] of 10 mm. The zone of inhibition at 80 µg/disc [3, 24] was 19 mm, the zone of inhibition at 80 µg/disc [4, 24] was 20 mm and the zone of inhibition at 80 µg/disc [12, 24] was 22 mm. For the same compound, the zone of inhibition at 80 µg/disc [5, 24] was 14 mm, the zone of inhibition at 80 µg/disc [13, 24] was 12 mm and the zone of inhibition at 80 µg/disc [6] was 25 mm. It also gave a zone of inhibition at 80 µg/disc [9, 25] of 17 mm.
